Structures are written as SMILES.

T1 sequence (Q8NEB9 whole entry): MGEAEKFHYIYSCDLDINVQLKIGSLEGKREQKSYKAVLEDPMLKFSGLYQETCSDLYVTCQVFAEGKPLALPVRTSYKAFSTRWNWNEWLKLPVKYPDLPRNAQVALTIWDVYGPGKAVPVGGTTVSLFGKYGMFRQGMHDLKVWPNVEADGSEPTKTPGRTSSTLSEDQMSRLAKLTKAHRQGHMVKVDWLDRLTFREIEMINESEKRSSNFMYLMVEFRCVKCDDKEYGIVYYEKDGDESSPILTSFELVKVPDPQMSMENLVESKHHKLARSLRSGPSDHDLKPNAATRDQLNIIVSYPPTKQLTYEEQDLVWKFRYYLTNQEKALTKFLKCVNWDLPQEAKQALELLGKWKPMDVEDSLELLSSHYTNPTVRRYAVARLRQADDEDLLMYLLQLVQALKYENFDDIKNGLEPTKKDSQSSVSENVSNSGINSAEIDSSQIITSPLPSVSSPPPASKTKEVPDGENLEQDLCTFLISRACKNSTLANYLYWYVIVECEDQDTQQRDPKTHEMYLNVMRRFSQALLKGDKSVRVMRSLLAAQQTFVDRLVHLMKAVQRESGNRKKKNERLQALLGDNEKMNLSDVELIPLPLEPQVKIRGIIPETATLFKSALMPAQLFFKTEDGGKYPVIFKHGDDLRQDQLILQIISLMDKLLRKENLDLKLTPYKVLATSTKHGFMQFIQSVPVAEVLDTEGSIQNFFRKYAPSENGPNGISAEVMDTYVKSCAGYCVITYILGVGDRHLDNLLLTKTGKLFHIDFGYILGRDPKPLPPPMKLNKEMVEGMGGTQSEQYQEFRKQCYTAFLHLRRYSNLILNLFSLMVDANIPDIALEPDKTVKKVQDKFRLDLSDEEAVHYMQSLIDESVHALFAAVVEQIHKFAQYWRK

The assay has as its target T1, recombinant Vps34 (Homo sapiens, UniProt Q8NEB9).
T1 construct: purchased Invitrogen PV5126
In words: Phosphorylation of phosphatidylinositol (PI) by Vps34 in vitro, ADP detected by TR-FRET (HTRF Transcreener ADP). The settings on record: 10 μM ATP, 55 μg/ml PI, approximately 3 nM Vps34, 1 hour at ambient temperature; absolute IC50, mean of two independent experiments; read-out: IC50 activity range. The class given is biochemical.
On to `C[C@@H]1COCCN1c1nc2n(c(=O)c1F)[C@@H](C(F)(F)F)CCN2CC(=O)C1CCOCC1` [Example 132, (R)-3-Fluoro-2-((R)-3-methylmorpholin-4-yl)-9-[2-oxo-2-(tetrahydro-pyran-4-yl)ethyl]-6-trifluoromethyl-6,7,8,9-tetrahydro-pyrimido[1,2-a]-pyrimidin-4-one], for which the IC50 is less than 10 nM.

On to `C[C@@H]1COCCN1c1cc(=O)n2c(n1)N(CC1COC1)[C@H](C(F)(F)F)CC2` [Example 133, (S)-2-((R)-3-Methyl-morpholin-4-yl)-9-oxetan-3-ylmethyl-8-trifluoromethyl-6,7,8,9-tetrahydro-pyrimido[1,2-a]-pyrimidin-4-one], for which the IC50 was less than 10 nM.

Take `C[C@@H]1COCCN1c1cc(=O)n2c(n1)N(c1ccc(C(F)F)nc1)C(C(F)(F)F)CC2` (stereo partly drawn) [Example 134, 9-(6-Difluoromethyl-pyridin-3-yl)-2-((R)-3-methylmorpholin-4-yl)-8-trifluoromethyl-6,7,8,9-tetrahydro-pyrimido[1,2-a]-pyrimidin-4-one]: the IC50 was less than 10 nM.

Turning to `C[C@@H]1COCCN1c1nc2n(c(=O)c1F)[C@@H](C(F)(F)F)CCN2CC(=O)c1ccccn1` [Example 135, (R)-3-Fluoro-2-((R)-3-methylmorpholin-4-yl)-9-(2-oxo-2-pyridin-2-ylethyl)-6-trifluoromethyl-6,7,8,9-tetrahydro-pyrimido[1,2-a]-pyrimidin-4-one], the half-maximal inhibitory concentration (IC50) is less than 10 nM.

In the case of `C[C@@H]1COCCN1c1cc(=O)n2c(n1)N(Cc1nnc(C(F)(F)F)o1)[C@H](C(F)(F)F)CC2` [Example 140, (S)-2-((R)-3-Methyl-morpholin-4-yl)-8-trifluoromethyl-9-(5-trifluoromethyl-[1,3,4]oxadiazol-2-yl-methyl)-6,7,8,9-tetrahydro-pyrimido[1,2-a]-pyrimidin-4-one], the IC50 is less than 10 nM.

For the compound `C[C@@H]1COCCN1c1cc(=O)n2c(n1)N(CC(=O)c1cccnc1)CC[C@@H]2C(F)(F)F` [Example 141, (R)-2-((R)-3-Methyl-morpholin-4-yl)-9-(2-oxo-2-pyridin-3-yl-ethyl)-6-trifluoromethyl-6,7,8,9-tetrahydro-pyrimido[1,2-a]-pyrimidin-4-one], the IC50 is less than 10 nM.

Take `C[C@@H]1COCCN1c1cc(=O)n2c(n1)N(Cc1nnc(C3CC3)o1)[C@H](C(F)(F)F)CC2` [Example 142, (S)-9-(5-Cyclopropyl-[1,3,4]oxadiazol-2-yl-methyl)-2-((R)-3-methylmorpholin-4-yl)-8-trifluoromethyl-6,7,8,9-tetrahydro-pyrimido[1,2-a]-pyrimidin-4-one]: the IC50 is less than 10 nM.

On to `Cc1nocc1CN1CC[C@H](C(F)(F)F)n2c1nc(N1CCOC[C@H]1C)cc2=O` [Example 143, (R)-9-(3-Methyl-isoxazol-4-ylmethyl)-2-((R)-3-methyl-morpholin-4-yl)-6-trifluoromethyl-6,7,8,9-tetrahydro-pyrimido[1,2-a]-pyrimidin-4-one], for which the half-inhibitory concentration (IC50) was less than 10 nM.

For `C[C@@H]1COCCN1c1cc(=O)n2c(n1)N(Cc1nc(C(F)(F)F)no1)CC[C@@H]2C(F)(F)F` [Example 144, (R)-2-((R)-3-Methyl-morpholin-4-yl)-6-trifluoromethyl-9-(3-trifluoromethyl-[1,2,4]oxadiazol-5-yl-methyl)-6,7,8,9-tetrahydro-pyrimido[1,2-a]-pyrimidin-4-one], the IC50 is less than 10 nM.

`CC(=O)CN1CC[C@H](C(F)(F)F)n2c1nc(N1CCOC[C@H]1C)cc2=O` [Example 145, (R)-2-((R)-3-Methyl-morpholin-4-yl)-9-(2-oxopropyl)-6-trifluoromethyl-6,7,8,9-tetrahydro-pyrimido[1,2-a]-pyrimidin-4-one]: the IC50 lay within 10 to 100 nM.

Take `Cc1nocc1CN1CC[C@H](C(F)(F)F)n2c1nc(N1CCOC[C@H]1C)c(F)c2=O` [Example 146, (R)-3-Fluoro-9-(3-methylisoxazol-4-yl-methyl)-2-((R)-3-methylmorpholin-4-yl)-6-trifluoromethyl-6,7,8,9-tetrahydro-pyrimido[1,2-a]-pyrimidin-4-one]: the IC50 is less than 10 nM.

Take `C[C@@H]1COCCN1c1nc2n(c(=O)c1F)[C@@H](C(F)(F)F)CCN2Cc1nc(C2CC2)no1` [Example 147, (R)-9-(3-Cyclopropyl-[1,2,4]oxadiazol-5-yl-methyl)-3-fluoro-2-((R)-3-methyl-morpholin-4-yl)-6-trifluoromethyl-6,7,8,9-tetrahydro-pyrimido[1,2-a]-pyrimidin-4-one]: the 50% inhibitory concentration (IC50) is less than 10 nM.

With `CC(=O)CN1CC[C@H](C(F)(F)F)n2c1nc(N1CCOC[C@H]1C)c(F)c2=O` [Example 148, (R)-3-Fluoro-2-((R)-3-methylmorpholin-4-yl)-9-(2-oxopropyl)-6-trifluoromethyl-6,7,8,9-tetrahydro-pyrimido[1,2-a]-pyrimidin-4-one], the 50% inhibitory concentration (IC50) fell in the range of 10 to 100 nM.

Take `Cc1noc(CN2CC[C@H](C(F)(F)F)n3c2nc(N2CCOC[C@H]2C)c(F)c3=O)n1` [Example 149, (R)-3-Fluoro-2-((R)-3-methylmorpholin-4-yl)-9-(3-methyl-[1,2,4]oxadiazol-5-yl-methyl)-6-trifluoromethyl-6,7,8,9-tetrahydro-pyrimido[1,2-a]-pyrimidin-4-one]: the IC50 is less than 10 nM.

Turning to `CC1(C)COCCN1c1cc(=O)n2c(n1)N(CC(=O)c1ccccc1)[C@H](C(F)(F)F)CC2` [Example 150, (S)-2-(3,3-Dimethyl-morpholin-4-yl)-9-(2-oxo-2-phenylethyl)-8-trifluoromethyl-6,7,8,9-tetrahydro-pyrimido[1,2-a]-pyrimidin-4-one], the IC50 was in the range of 10 to 100 nM.

As to `C[C@@H]1COC[C@H](C)N1c1cc(=O)n2c(n1)N(Cc1ccc(Cl)s1)[C@H](C(F)(F)F)CC2` [Example 151, (S)-9-(5-Chloro-thiophen-2-ylmethyl)-2-((3S,5R)-3,5-dimethylmorpholin-4-yl)-8-trifluoromethyl-6,7,8,9-tetrahydro-pyrimido[1,2-a]-pyrimidin-4-one], the IC50 lay in the range of 10 to 100 nM.

Regarding `C[C@@H]1COC[C@@H](C)N1c1cc(=O)n2c(n1)N(Cc1ccnn1C(F)F)[C@H](C(F)(F)F)CC2` [Example 154, (S)-9-(2-Difluoromethyl-2H-pyrazol-3-ylmethyl)-2-((3R,5R)-3,5-dimethyl-morpholin-4-yl)-8-trifluoromethyl-6,7,8,9-tetrahydro-pyrimido[1,2-a]-pyrimidin-4-one], the IC50 is less than 10 nM.

In the case of `Cc1cc(CN2c3nc(N4[C@H](C)COC[C@H]4C)cc(=O)n3CC[C@H]2C(F)(F)F)on1` [Example 155, (S)-2-((3R,5R)-3,5-Dimethylmorpholin-4-yl)-9-(3-methyl-isoxazol-5-ylmethyl)-8-trifluoromethyl-6,7,8,9-tetrahydro-pyrimido[1,2-a]-pyrimidin-4-one], the IC50 is less than 10 nM.

Consider `C[C@@H]1COC[C@@H](C)N1c1cc(=O)n2c(n1)N(Cc1ccc(Cl)nc1)[C@H](C(F)(F)F)CC2` [Example 156, (S)-9-(6-Chloro-pyridin-3-ylmethyl)-2-((3R,5R)-3,5-dimethyl-morpholin-4-yl)-8-trifluoromethyl-6,7,8,9-tetrahydro-pyrimido[1,2-a]-pyrimidin-4-one], for which the IC50 fell in the range of 10 to 100 nM.

For `C[C@@H]1COC[C@@H](C)N1c1cc(=O)n2c(n1)N(Cc1ccnc(Cl)c1)[C@H](C(F)(F)F)CC2` [Example 157, (S)-9-(2-Chloro-pyridin-4-ylmethyl)-2-((3R,5R)-3,5-dimethyl-morpholin-4-yl)-8-trifluoromethyl-6,7,8,9-tetrahydro-pyrimido[1,2-a]-pyrimidin-4-one], the IC50 was less than 10 nM.

As to `C[C@@H]1COC[C@@H](C)N1c1cc(=O)n2c(n1)N(Cc1ncco1)[C@H](C(F)(F)F)CC2` [Example 158, (S)-2-((3R,5R)-3,5-Dimethylmorpholin-4-yl)-9-oxazol-2-yl-methyl-8-trifluoromethyl-6,7,8,9-tetrahydro-pyrimido[1,2-a]-pyrimidin-4-one], the IC50 is less than 10 nM.

As to `C[C@@H]1COC[C@@H](C)N1c1cc(=O)n2c(n1)N(c1ccnc(Cl)c1)[C@H](C(F)(F)F)CC2` [Example 159, (S)-9-(2-Chloro-pyridin-4-yl)-2-((3R,5R)-3,5-dimethyl-morpholin-4-yl)-8-trifluoromethyl-6,7,8,9-tetrahydro-pyrimido[1,2-a]-pyrimidin-4-one], the IC50 was less than 10 nM.

`C[C@@H]1COC[C@@H](C)N1c1cc(=O)n2c(n1)N(c1cccnc1)[C@H](C(F)(F)F)CC2` [Example 160, (S)-2-((3R,5R)-3,5-Dimethylmorpholin-4-yl)-9-pyridin-3-yl-8-trifluoromethyl-6,7,8,9-tetrahydro-pyrimido[1,2-a]-pyrimidin-4-one]: the IC50 was less than 10 nM.

As for `O=c1cc(N2CC3CCC(C2)O3)nc2n1CC[C@@H](C(F)(F)F)N2c1cc(F)cc(F)c1` [Example 161, (S)-9-(3,5-Difluoro-phenyl)-2-(8-oxa-3-azabicyclo[3.2.1]oct-3-yl)-8-trifluoromethyl-6,7,8,9-tetrahydro-pyrimido[1,2-a]-pyrimidin-4-one], the IC50 lay in the range of 10 to 100 nM.

For the compound `O=c1cc(N2CC3CCC(C2)O3)nc2n1CC[C@@H](C(F)(F)F)N2Cc1ccc(Cl)s1` [Example 162, (S)-9-(5-Chloro-thiophen-2-ylmethyl)-2-(8-oxa-3-aza-bicyclo[3.2.1]oct-3-yl)-8-trifluoromethyl-6,7,8,9-tetrahydro-pyrimido[1,2-a]-pyrimidin-4-one], the IC50 fell in the range of 10 to 100 nM.

Turning to `O=C(CN1c2nc(N3CC4CCC(C3)O4)cc(=O)n2CC[C@H]1C(F)(F)F)c1ccccc1` [Example 163, (S)-2-(8-Oxa-3-aza-bicyclo[3.2.1]oct-3-yl)-9-(2-oxo-2-phenyl-ethyl)-8-trifluoromethyl-6,7,8,9-tetrahydro-pyrimido[1,2-a]-pyrimidin-4-one], the IC50 was less than 10 nM.

As for `O=c1cc(N2CC3CCC(C2)O3)nc2n1CC[C@@H](C(F)(F)F)N2Cc1ccno1` [Example 164, (S)-9-Isoxazol-5-yl-methyl-2-(8-oxa-3-azabicyclo[3.2.1]oct-3-yl)-8-trifluoromethyl-6,7,8,9-tetrahydro-pyrimido[1,2-a]-pyrimidin-4-one], the IC50 was 10 to 100 nM.

These data come from patent publication US11739100B2, “2,3-dihydro-1h-imidazo{1,2-a}pyrimidin-5-one and this 1,2,3,4-tetrahydropyrimido{1,2-a}pyrimidin-6-one derivatives comprising a substituted morpholine, preparation thereof and pharmaceutical use thereof” (SANOFI, priority 2012, dated 2023).
